The record followed here is patent publication US20020025314A1, “Homeopathic compositions for the treatment of viral and metabolic deseases” (priority 1992, published 2002).

The test system of experiment [1] is patient presenting with hyperthyroidism due to multinodular thyroid hyperplasia, and morning allergic rhinitis. Description: Case No. 2: TSH / free T4 and allergic rhinitis in a patient with hyperthyroidism. In kind it is in vivo, human. The note with it: for course of hyperthyroidism / thyroid hormone level under treatment: a few days of Basdene, 10 days of Neomercazole; for TSH: normal 0.2 to 4; for T4f: normal 10 to 25. The source says: A patient presenting with hyperthyroidism due to multinodular thyroid hyperplasia, and morning allergic rhinitis.
The normal levels are 0.2 to 4 for TSH and 10 to 25 for T4f. The TSH is abnormally low and the free T4 abnormally high. The patient receives treatment with a synthetic thyroid inhibitor, namely Basdene 9 on its own, starting on February 22, at increasing doses of 1 tbl on the 1st day, 2 tbl on the 2nd day and then 3 tbl per day. on 3 March TSH: 0.02
On March 7, the patient is seen again by the consultant and, in place of Basdene®, Neo-mercazole® is prescribed at doses of 3 tbl 3 times a day:
On March, 20 the patient is seen again and the following is added to the Neo-mercazole treatment for the allergic rhinitis:
Natrium muriaticum 6DH, 3 tbl/1 for 7 days, then
Natrium muriaticum 4CH, 3 granules/1 for 15 days.
In order to know whether it is the Natrium muriaticum or the Neomercazole 9 which has normalized the thyroid functions, the Neo-mercazole® is suddenly withdrawn, which, if it is the Neo-mercazole® which has lowered the T4f, should have the effect of raising it immediately to 30, and the regular administration of Natrium muriaticum 4CH is continued on April 13.
Natrium muriaticum 6DH: 3tbl/day from March 20 to April 11, then Natrium muriaticum 4CH: 3 granules/day from April 11 to April 28. On April 28, the patient is seen again by the consultant and the prescribed dose of Natrium muriaticum is further modified, being increased to Natrium muriaticum 5CH: 3 granules a day. The Neo-mercazole® was of course never restarted. The effect of this change in doses of Natrium muriaticum is to further lower the thyroid hormone:
The following dose of Natrium Muriaticum 5CH is still continued from this time on: 3 granules a day.
There was no cancer on the operated part. On August 1 the result of this operation is a T4f of 13.8, which is now near the lower limit of the norm (the norm being 10 to 25). A tendency towards hypothyroidism might be feared.

In experiment [2] the test system is child suffering from juvenile chronic polyarthritis. Description: Case No. 3: clinical course of juvenile chronic polyarthritis. In kind it is in vivo, human. Conditions: 1 tbl of 250 mg a day, before homeopathic treatment; disease worsens.
Where [3] appears, read: on 17 March, after 10 days of Neo-mercazole 3 tbl 3 times a day.

Each structure is given as a SMILES string.

In the case of `Oc1cc(Cc2ccccc2)nc(S)n1` [Basdene], the “course of hyperthyroidism / thyroid hormone level under treatment” value in experiment [1] was “remained identical and even become slightly worse”. In experiment [1] (on 3 March, Basdene on its own from February 22, up to 3 tbl per day, 0.02 before treatment), the TSH came to 0.02. Further, in experiment [1] (on 3 March, Basdene on its own from February 22, up to 3 tbl per day, 35 before treatment), the T4f stood at 36.8.
Regarding `COc1ccc2cc([C@H](C)C(=O)O)ccc2c1` [Naprosyn], the “suppression of polyarticular symptoms” value in experiment [2] is listed as “not sufficient to suppress the symptoms”.
As for `CCOC(=O)n1ccn(C)c1=S` [Neo-mercazole], the “course of hyperthyroidism / thyroid hormone level under treatment” value in experiment [1] is on record as “no improvement”. In experiment [1] (setting [3]), the TSH was 0.02 and the T4f came out at 33.8.
